Experimental data as given in patent publication US20240002379A1, “ASYMMETRIC CONJUGATE COMPOUNDS” (Pheon Therapeutics Ltd., priority 2016, published 2024).

Tests used:
TyrT DNA fragment = test: DNA cleavage assay, TyrT fragment; type: biochemical
Experimental: The ability of 13 and of a series of compounds to cleave double-stranded DNA was investigated using a modification of the previously established DNA footprinting assay (34). Following an overnight incubation of the ligand-DNA complexes, the mixture was mixed with strand separation buffer containing 10 mM EDTA, 10 mM NaOH, 0.1% bromophenol blue, 80% formamide and incubated at 100° C. for 3 min. The mixture was then immediately cooled on ice and run on an 8% denaturing gel. […] Using the GA marker, these additional bands were identified as cleavage products produced by 13 at certain A sites of the DNA fragment.
The preparation of the TyrT DNA fragment (FIG. 8) and HexARev DNA fragment (FIG. 15) have been previously described (34). Briefly, the sequence which had been cloned into the BamHI site of pUC18 was obtained by cutting with HindIII and EcoRI. Radiolabelled DNA fragments were prepared by filling in the 3′-end of the HindIII site with [α-^32P]dATP using Klenow DNA polymerase (exo-).
The radiolabelled DNA fragment was separated from the remainder of the plasmid DNA on a 6% non-denaturing polyacrylamide gel. The gel (20 cm long, 0.3 mm thick) was run at 400 V in 1×TBE running buffer for about 1-2 h, until the bromophenol blue had run most of the way down the gel. […]

[1] = test system: three fluorescently labelled DNA sequences shown in FIG. 17; test: FRET DNA melting, the three DNA sequences shown in FIG. 17 together; type: binding; settings: different concentrations, all three sequences, vs control DNA
Text: (§1) Further FRET DNA melting studies were undertaken on a number of molecules using three fluorescently labelled sequences. The sequences (FIG. 17) were designed to provide additional evidence that the series can form inter- and intrastrand cross-links. Inosines were inserted in place of traditional DNA bases in some cases to limit the number of binding sites available for the compounds to interact with. The short duplexes used in this FRET study are relatively unstable in the duplex form with a melting temperature below 30° C. so that, in the absence of ligand, a large part of the melting occurs below the starting temperature of the experiment. […] Increasing concentrations of 13 cause a greater amount of the melting transition to appear at the higher temperature (i.e. a greater number of the DNA molecules are cross-linked). A greater effect for 5′-AIIAGAITTTI′-3′ can be observed at lower concentrations of 13.
Oligonucleotides were obtained from ATDbio (Southampton, UK) in lyophilised form. They were labelled with a fluorophore molecule (F=fluorescein) at the 5′-end and a quencher molecule (Q=dabcyl) at the 3′-end of the complementary strand. Each oligonucleotide was dissolved in distilled H2O to form stock solutions of 100 PM. Working solutions of 5 μM were prepared by diluting the stock solution with distilled H2O.
The following buffers were used: 250 mM phosphate buffer pH 7.4 (consisting of sodium dihydrogen phosphate and sodium phosphate diluted in distilled H2O) and 5 M sodium chloride buffer. A11 buffers and distilled H2O were filtered through a […] filter prior to use.
For the FRET experiments a stock solutions were prepared by dissolving compound (such as compound 13) in DMSO to give a concentration of 10 mM. From this stock solution, working solutions of the desired concentration were prepared by diluting the stock solution with distilled H2O.
The reaction mixture was comprised of 4 μL of 250 mM phosphate buffer (final concentration of 50 mM), 4 μL flourophor and 4 μL quencher molecule of the appropriate oligonucleotide for a final concentration of 0.2 PM, 4 μL 5 M sodium chloride (final concentration of 1 M NaCl), and 4 μL of distilled H2O. This mixture was heated in an Eppendorf tube at 90° C. for 1 min and slowly cooled down to room temperature. This process was carried out to anneal the single strands to double-stranded DNA. Following this, 4 μL of the ligand was added in the desired concentration and the mixture incubated overnight either at room temperature or 4° C. A control sample of DNA only was prepared by mixing 4 μL 250 mM phosphate buffer (final concentration of 50 mM) with 4 μL fluorophore-labelled and 4 μL quencher-labelled oligonucleotides (of the appropriate sequence) to give a final concentration of 0.2 PM, 4 μL 5 M sodium chloride (final concentration of 1 M NaCl) and 4 μL distilled H2O. This mixture was analysed without prior annealing.
Fluorescence melting profiles were measured using a Roche LightCycler using a total reaction volume of 20 μL. Initially, the samples were denatured by heating to 95° C. at a rate of 1° C. min^−1. The samples were then maintained at 95° C. for 5 min before annealing by cooling to 25° C. at 1° C. min^−1. The samples were then held at 25° C. for a further 5 min and finally melted by heating to 95° C. at 1° C. min^−1. Annealing steps and melting steps were all recorded and changes in fluorescence were measured at 520 nm.
Tm values were obtained from the first derivates of the melting profiles using the Roche LightCycler software.

[2] = test system: fluorescently labelled DNA duplex 5′-[…]-3′; test: FRET DNA melting, FIG. 17 bottom sequence; type: binding; settings: at higher concentrations; intra-strand cross-links
Text: as §1, with “A greater effect for 5′-AIIAGAITTTI′-3′ can be observed at lower concentrations of 13.” left out
The reaction mixture was comprised of 4 μL of 250 mM phosphate buffer (final concentration of 50 mM), 4 μL flourophor and 4 μL quencher molecule of the appropriate oligonucleotide for a final concentration of 0.2 PM, 4 μL 5 M sodium chloride (final concentration of 1 M NaCl), and 4 μL of distilled H2O. […] This mixture was analysed without prior annealing.
Fluorescence melting profiles were measured using a Roche LightCycler using a total reaction volume of 20 μL. […] Annealing steps and melting steps were all recorded and changes in fluorescence were measured at 520 nm. […]

Row | Compound | number of preferred sites observed in the TyrT DNA fragment (TyrT DNA fragment; cleavage at A sites) | cleavage of TyrT DNA fragment (TyrT DNA fragment; overnight incubation, 100° C. for 3 min, 8% denaturing gel (FIG. 11)) | effect on melting temperature / DNA stabilisation [1] | Tm [2]
1 | COc1cc2c(cc1OCCCC(=O)N1C[C@@H](CCl)c3c1cc(O)c1ccccc31)N=C[C@@H]1CCCCN1C2=O [Compound 13, (S)-3-(4-((S)-1-(Chloromethyl)-5-hydroxy-1,2-dihydro-3H-benzo[e]indol-3-yl)-4-oxobutoxy)-2-methoxy-7,8,9,10-tetrahydrobenzo[e]-pyrido[1,2-a][1,4]diazepin-12(6aH)-one] | three | distinct cleavage patterns |  | 
2 | COc1cc2c(cc1OCc1cccc(CC(=O)N3C[C@@H](CCl)c4c3cc(O)c3ccccc43)c1)N=C[C@@H]1CCCCN1C2=O [Compound 42, (S)-3-((3-(2-((S)-1-(Chloromethyl)-5-hydroxy-1,2-dihydro-3H-benzo[e]indol-3-yl)-2-oxoethyl)benzyl)oxy)-2-methoxy-7,8,9,10-tetrahydrobenzo[e]pyrido[1,2-a][1,4]diazepin-12(6aH)-one] |  |  | increases significantly | ~80 °C
